The text below walks through data of US4761409A, “Cephem derivatives” (Sumitomo Pharmaceuticals Company, Limited, priority 1984, dated 1988).

Data set [1] has as its system Staphylococcus aureus 209P. Briefly: in vitro antimicrobial activity test (MIC). The data set is classed as cell-based.
Data set [2] deals with Staphylococcus epidermidis IAM1296. Put plainly: in vitro antimicrobial activity test (MIC). In kind it is cell-based.
Data set [3] relates to Escherichia coli NIHJ JC-2. Briefly: in vitro antimicrobial activity test (MIC). Particulars: NIHJJC2. The data set is classed as cell-based.
A further data set relates to Serratia marcescens X100. Briefly: in vitro antimicrobial activity test (MIC). In kind it is cell-based.
In data set [4] the test system is Citrobacter freundii GN346. Put plainly: in vitro antimicrobial activity test (MIC). The data set is classed as cell-based.
The nature of data set [5]: oral absorbability test: urinary excretion in mice after oral administration. The data set is classed as in vivo. Particulars: mouse, urine, dose: 50 mg/kg, read-out: Urinary excretion rate in mice after oral administration.
The test system of data set [6] is resistant bacteria which produce β-lactamase. To be noted: background, cephem antibiotics for oral administration; cited from earlier work.
The subject of a further data set is bacteria. Particulars: background, compared with commercially available cephem antibiotics; cited from earlier work.

SMILES strings stand for the structures. ≈ marks a conversion by molar mass, not a printed value.

With `CO/N=C(\C(=O)NC1C(=O)N2C(C(=O)O)=C(CSc3ncns3)CS[C@H]12)c1cscn1` (stereo partly drawn) [Example 2, 7-[(Z)-2-Methoxyimino-2-(thiazol-4-yl)acetamido]-3-(1,2,4-thiadiazol-5-yl)thiomethyl-3-cephem-4-carboxylic acid], the minimum inhibitory concentration (MIC) was determined as 0.2 µg/mL (≈ 0.401 µM) in data set [1]; 1.56 µg/mL (≈ 3.13 µM) in data set [2]; 0.2 µg/mL (≈ 0.401 µM) in data set [3]; 0.78 µg/mL (≈ 1.56 µM) with Serratia marcescens X100; 0.78 µg/mL (≈ 1.56 µM) in data set [4].

`CCOC(=O)OC(C)OC(=O)C1=C(CSc2nc(C)ns2)CS[C@@H]2C(NC(=O)/C(=N\OC)c3cscn3)C(=O)N12` (stereo partly drawn) [Example 6, 1-Ethoxycarbonyloxyethyl 7-[(Z)-2-methoxyimino-2-(thiazol-4-yl)acetamido]-3-(3-methyl-1,2,4-thiadiazol-5-yl)thiomethyl-3-cephem-4-carboxylate]: the dose excreted in data set [5] came out at 32%.

Turning to `CC1=C(C(=O)O)N2C(=O)[C@@H](NC(=O)[C@H](N)c3ccccc3)[C@H]2SC1` [cephalexin], the “activity on resistant bacteria which produce β-lactamase” value in data set [6] was “ineffective”. In addition, in the data set on bacteria, the “antimicrobial activity and width of the antimicrobial spectrum” value (“antimicrobial activity and width” for short) was “slightly inferior”.

As to `CO/N=C(\C(=O)NC1C(=O)N2C(C(=O)OCc3oc(=O)oc3C)=C(CSc3ncns3)CS[C@H]12)c1cscn1` (stereo partly drawn) [Example 15, (5-Methyl-2-oxo-1,3-dioxolen-4-yl)methyl-7-[(Z)-2-methoxyimino-2-(thiazol-4-yl)acetamido]-3-(1,2,4-thiadiazol-5-yl)thiomethyl-3-cephem-4-carboxylate], the dose excreted in data set [5] came to 32%.

With `CO/N=C(\C(=O)NC1C(=O)N2C(C(=O)O)=C(CSc3nc(C)ns3)CSC12)c1cscn1` (stereo not drawn) [Example 1, 7-[(Z)-2-Methoxyimino-2-(thiazol-4-yl)acetamido]-3-(3-methyl-1 2,4-thiadiazol-5-yl)thiomethyl-3-cephem-4-carboxylic acid], the MIC worked out at 0.1 µg/mL (≈ 0.195 µM) in data set [1]; 1.56 µg/mL (≈ 3.04 µM) in data set [2]; 0.1 µg/mL (≈ 0.195 µM) in data set [3]; 0.78 µg/mL (≈ 1.52 µM) against Serratia marcescens X100; 0.78 µg/mL (≈ 1.52 µM) in data set [4].

With `N[C@@H](C(=O)N[C@@H]1C(=O)N2C(C(=O)O)=C(CSc3c[nH]nn3)CS[C@H]12)c1ccc(O)cc1` [cefatrizine], the “activity on resistant bacteria which produce β-lactamase” value in data set [6] is listed as “ineffective”. Besides, in the data set with bacteria, the “antimicrobial activity and width” value is reported as “slightly inferior”.

For the molecule `N[C@@H](C(=O)N[C@@H]1C(=O)N2C(C(=O)O)=C(Cl)CS[C@H]12)c1ccccc1` [cefaclor], in data set [6], the “activity on resistant bacteria which produce β-lactamase” value is reported as “ineffective”. For the same molecule, the “antimicrobial activity and width” value with bacteria is “slightly inferior”.

As usually defined, the MIC is the smallest concentration in the dilution series that meets the test's criterion for growth inhibition. Low values mean greater potency, high ones weaker potency.
